Data as given in ChEMBL document CHEMBL4706752 (ACS Med Chem Lett, 2021).
Activity calls are given as the source filed them. No cut-off for these calls is given here.

Tests used:
[1] = Decrease in LCN2 gene expression in C57BL/6 mouse model of IL-23 induced acanthosis model of psoriasis at 20 mg/kg, po BID for 10 days by RT-PCR analysis; assay type: functional; details: C57BL/6, po, 240 h, time 10 day
[2] = Decrease in LCN2 gene expression in C57BL/6 mouse model of IL-23 induced acanthosis model of psoriasis at 5 mg/kg, po BID for 10 days by RT-PCR analysis; assay type: functional; details: C57BL/6, po, 240 h, time 10 day
[3] = target: T1, Oxysterols receptor LXR-beta (Homo sapiens, UniProt P55055); assay: Inhibition of LXRbeta (unknown origin)
T1 sequence (P55055 whole entry): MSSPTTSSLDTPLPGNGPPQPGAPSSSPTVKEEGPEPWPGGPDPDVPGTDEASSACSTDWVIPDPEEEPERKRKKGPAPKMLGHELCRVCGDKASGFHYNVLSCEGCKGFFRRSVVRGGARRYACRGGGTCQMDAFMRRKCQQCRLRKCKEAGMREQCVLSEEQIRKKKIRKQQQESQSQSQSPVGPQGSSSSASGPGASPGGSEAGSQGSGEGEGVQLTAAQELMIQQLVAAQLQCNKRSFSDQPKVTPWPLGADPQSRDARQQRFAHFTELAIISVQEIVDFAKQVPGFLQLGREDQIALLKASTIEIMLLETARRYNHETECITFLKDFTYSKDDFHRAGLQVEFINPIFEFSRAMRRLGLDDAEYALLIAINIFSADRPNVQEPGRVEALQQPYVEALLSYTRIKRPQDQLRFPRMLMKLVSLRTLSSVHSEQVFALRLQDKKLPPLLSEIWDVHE

[4] = Cmax in dog at 2 mg/kg, po; assay type: ADME, organism-based, Canis lupus familiaris; set-up: route oral, dose 2 mg/kg; details: in vivo
[5] = Apparent permeability across apical to basolateral membrane in human Caco2 cells; assay type: ADME, cell-based; details: Caco-2
[6] = AUC in Balb/c mouse at 2 mg/kg, iv; assay type: ADME, organism-based; set-up: dose 2 mg/kg; details: in vivo
[7] = Tmax in dog at 2 mg/kg, po; assay type: ADME, organism-based, Canis lupus familiaris; details: in vivo
Mus musculus [8] = assay: Antiinflammatory activity in DBA/1J mouse model of collagen-induced arthritis assessed as reduction in arthritic score at 5 to 20 mg/kg, po dosed twice daily for 21 days; assay type: functional, organism-based; details: dose 5-20 mg/kg, time 21.0 day
[9] = Unbound volume of distribution at steady state in dog at 1 mg/kg, iv; assay type: ADME, organism-based, Canis lupus familiaris; details: in vivo
[10] = Cmax in Sprague-Dawley rat at 4 mg/kg, po; assay type: ADME, organism-based; set-up: route oral, dose 4 mg/kg; details: in vivo
[11] = Unbound volume of distribution at steady state in Balb/c mouse at 2 mg/kg, iv; assay type: ADME, organism-based; details: in vivo
[12] = Half life in Balb/c mouse at 2 mg/kg, iv; assay type: ADME, organism-based; details: in vivo
[13] = Unbound volume of distribution at steady state in Sprague-Dawley rat at 2 mg/kg, iv; assay type: ADME, organism-based; details: in vivo
[14] = Oral bioavailability in dog at 2 mg/kg; assay type: ADME, organism-based, Canis lupus familiaris; details: in vivo
[15] = Protein binding in human serum assessed as fraction unbound; assay type: ADME, cell-free; details: read-out: PB
[16] = Cmax in cynomolgus monkey at 2 mg/kg, po; assay type: ADME, organism-based, Macaca fascicularis; set-up: route oral, dose 2 mg/kg; details: in vivo
[17] = Clearance in Balb/c mouse at 2 mg/kg, iv; assay type: ADME, organism-based; details: in vivo
Mus musculus [18] = assay: Antiinflammatory activity in DBA/1J mouse model of collagen-induced arthritis assessed as reduction in Anti-CII Ab level at 5 to 20 mg/kg, po dosed twice daily for 21 days; assay type: functional, organism-based; details: dose 5-20 mg/kg, time 21.0 day
[19] = target: T2, Nuclear receptor subfamily 1 group I member 2 (Homo sapiens, UniProt O75469); assay: Inhibition of PXR (unknown origin)
T2 sequence (O75469 whole entry): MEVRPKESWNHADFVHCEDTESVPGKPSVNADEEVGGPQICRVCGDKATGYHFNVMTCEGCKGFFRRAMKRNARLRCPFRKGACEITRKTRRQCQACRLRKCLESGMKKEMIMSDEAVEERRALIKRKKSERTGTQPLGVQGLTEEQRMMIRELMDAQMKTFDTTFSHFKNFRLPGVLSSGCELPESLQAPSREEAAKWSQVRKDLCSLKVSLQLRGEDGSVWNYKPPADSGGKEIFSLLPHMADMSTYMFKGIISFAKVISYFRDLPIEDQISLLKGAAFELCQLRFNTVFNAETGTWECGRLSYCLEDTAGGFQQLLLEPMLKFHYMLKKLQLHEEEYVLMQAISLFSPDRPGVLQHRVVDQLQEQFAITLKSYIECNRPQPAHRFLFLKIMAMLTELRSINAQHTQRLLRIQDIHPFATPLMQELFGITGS

Mus musculus [20] = assay: Suppression of ear thickness in C57BL/6 mouse model of IL-23 induced acanthosis model of psoriasis assessed as AUC of %change in ear thickness at 20 mg/kg, po BID for 10 days measured every other day; assay type: functional; details: time 10 day
Mus musculus [21] = assay: Antiinflammatory activity in DBA/1J mouse model of collagen-induced arthritis assessed as reduction in plasma IL-6 level at 5 mg/kg, po dosed twice daily for 21 days (reference value: 80 +/- 6 pg/ml); assay type: functional; details: time 21 day
[22] = Decrease in IL-17a gene expression in C57BL/6 mouse model of IL-23 induced acanthosis model of psoriasis at 5 mg/kg, po BID for 10 days by RT-PCR analysis; assay type: functional; details: C57BL/6, po, 240 h, time 10 day
[23] = target: T3, Nuclear receptor ROR-alpha (Homo sapiens, UniProt P35398); assay: Inhibition of RORalpha (unknown origin)
T3 sequence (P35398 whole entry): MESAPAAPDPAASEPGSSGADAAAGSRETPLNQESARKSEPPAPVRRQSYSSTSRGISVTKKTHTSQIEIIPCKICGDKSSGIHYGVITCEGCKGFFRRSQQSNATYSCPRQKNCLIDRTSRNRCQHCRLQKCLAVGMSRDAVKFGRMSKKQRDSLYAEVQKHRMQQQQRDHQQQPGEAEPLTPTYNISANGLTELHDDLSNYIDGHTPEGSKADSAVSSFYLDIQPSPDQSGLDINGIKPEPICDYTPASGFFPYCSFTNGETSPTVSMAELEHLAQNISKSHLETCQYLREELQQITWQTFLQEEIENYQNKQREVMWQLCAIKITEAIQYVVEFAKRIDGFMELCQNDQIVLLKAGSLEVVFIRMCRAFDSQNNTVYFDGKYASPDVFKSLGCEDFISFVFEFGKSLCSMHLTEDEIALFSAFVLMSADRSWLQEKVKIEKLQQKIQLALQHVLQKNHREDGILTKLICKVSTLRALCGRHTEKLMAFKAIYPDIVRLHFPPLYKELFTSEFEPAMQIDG

[24] = AUC in dog at 2 mg/kg, po; assay type: ADME, organism-based, Canis lupus familiaris; set-up: dose 2 mg/kg; details: in vivo
[25] = Clearance in Sprague-Dawley rat at 2 mg/kg, iv; assay type: ADME, organism-based; details: in vivo
[26] = Metabolic stability in mouse liver microsomes assessed as compound remaining after 10 mins; assay type: ADME, Microsome; details: read-out: Stabilty
Mus musculus [27] = assay: Suppression of ear thickness in C57BL/6 mouse model of IL-23 induced acanthosis model of psoriasis at 5 to 20 mg/kg, po BID for 10 days measured every other day; assay type: functional, organism-based; details: dose 5-20 mg/kg, time 10.0 day
Mus musculus [28] = assay: Antiinflammatory activity in DBA/1J mouse model of collagen-induced arthritis assessed as reduction in clinical score at 20 mg/kg, po dosed twice daily for 21 days measured on day 51; assay type: functional; details: 504 h, time 21 day

- EC50 [3]: > 10 µM
- Cmax [4]: 1700 nM
- Papp A→B [5]: 11 ×10⁻⁶ cm/s
- AUC [6]: 22.7 µM·h
- Tmax [7]: 7 h
- fVdss [9]: 1.3 L/kg
- Cmax [10]: 1600 nM
- fVdss [11]: 2.2 L/kg
- half-life [12]: 11 h
- fVdss [13]: 2.5 L/kg
- bioavailability [14]: 72%
- fraction unbound [15]: 0.022
- Cmax [16]: 600 nM
- clearance [17]: 2.1 mL/min/kg
- EC50 [19]: > 10 µM
- EC50 [23]: > 10 µM
- AUC [24]: 163 µM·h
- clearance [25]: 1.9 mL/min/kg
- remaining at 10 min [26]: 98%
Compound: C[C@@](O)(CS(C)(=O)=O)C(=O)N[C@@H]1CC[C@@]2(S(=O)(=O)c3ccc(F)cc3)c3ccc(C(F)(C(F)(F)F)C(F)(F)F)nc3CC[C@@H]12
- inhibition in vivo at 20 mg/kg [1]: 82.9%
- inhibition in vivo at 5 mg/kg [2]: 62.4%
- Activity (Mus musculus [8]): Dose-dependent effect
- Activity (Mus musculus [18]): Active
- Activity (Mus musculus [20]): 77.2%
- Activity (Mus musculus [21]): 26 pg/mL
- inhibition in vivo at 5 mg/kg [22]: 57.5%
- Activity (Mus musculus [27]): Dose-dependent effect
- inhibition in vivo at 20 mg/kg (Mus musculus [28]): 78%
